Read-outs that look alike come from different tables or passages of the source.
Key:
[1] = system: p21 induction in HCT116 cells; experiment: p21 induction in HCT116 cells; format: cell-based; details: HCT116 cells, 24 h compound incubation, read-out: P21_EC50
Method in brief: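 HCT116 cells, 2,000/well, treated 24 h at 37 °C with 11-point compound dilutions in duplicate. Fixed, then immunostained for p21 and GAPDH and read by near-IR imaging at 800/700 nm. Normalized to DMSO (low) and reference WRN inhibitor (high) controls; EC50 from non-linear regression.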

[2] = target: WRN (BV08), human Werner helicase (Uniprot Q14191, amino acids 517-1235 with L1074F point mutation) (Homo sapiens (Human), UniProt Q14191, L1074F); experiment: WRN (BV08) ADP-Glo assay; format: biochemical; details: class symbols A-E, read-out: ADP-Glo_hWRN_IC50
Chain of WRN (BV08), human Werner helicase (Uniprot Q14191, amino acids 517-1235 with L1074F point mutation) (Q14191 other isoform, or with tags, fused parts or gaps L1074F (already in the parent)): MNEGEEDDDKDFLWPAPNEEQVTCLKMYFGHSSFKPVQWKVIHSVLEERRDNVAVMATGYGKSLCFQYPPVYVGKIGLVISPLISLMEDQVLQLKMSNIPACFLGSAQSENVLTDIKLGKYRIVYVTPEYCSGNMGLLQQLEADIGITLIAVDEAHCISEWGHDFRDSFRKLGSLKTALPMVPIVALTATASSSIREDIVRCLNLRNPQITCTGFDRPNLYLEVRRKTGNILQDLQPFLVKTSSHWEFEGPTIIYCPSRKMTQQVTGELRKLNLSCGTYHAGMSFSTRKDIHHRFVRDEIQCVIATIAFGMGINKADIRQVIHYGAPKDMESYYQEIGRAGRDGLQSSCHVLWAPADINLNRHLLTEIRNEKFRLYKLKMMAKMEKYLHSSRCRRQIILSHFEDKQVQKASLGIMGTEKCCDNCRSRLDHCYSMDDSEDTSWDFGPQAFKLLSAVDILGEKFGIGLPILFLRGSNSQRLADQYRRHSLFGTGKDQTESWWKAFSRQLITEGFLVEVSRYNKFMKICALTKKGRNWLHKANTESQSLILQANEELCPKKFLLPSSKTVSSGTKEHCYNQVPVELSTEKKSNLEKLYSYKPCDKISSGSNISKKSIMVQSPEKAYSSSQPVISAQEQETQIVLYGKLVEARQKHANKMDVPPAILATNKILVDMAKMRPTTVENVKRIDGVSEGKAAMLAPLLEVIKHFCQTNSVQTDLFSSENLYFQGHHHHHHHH

| SMILES | EC50 ([1]; Homo sapiens, HCT-116, 24 h) [nM] | IC50 [2] [nM] | EC50 [1] [nM] |
| --- | --- | --- | --- |
| CCc1c(N2CCN(C(=O)c3ncnc(C)c3O)[C@H]3CC[C@@H]32)c(=O)c2nc(N3CC[C@H]4C[C@H]43)cnc2n1CC(=O)Nc1ccc(C(F)(F)F)cc1Cl (single isomer, unassigned) [I-219] | < 500 | ≤ 5 |  |
| CCc1c(N2CCN(C(=O)c3ncnc(C)c3O)[C@H]3CC[C@@H]32)c(=O)c2nc(N3CC[C@@H]4C[C@@H]43)cnc2n1CC(=O)Nc1ccc(C(F)(F)F)cc1Cl (single isomer, unassigned) [I-220] | < 500 | ≤ 5 |  |
| CCc1c(N2CCN(C(=O)c3c(OC)ncc(C)c3O)C[C@@H]2C)c(=O)c2nc(N3CC[C@H]4C[C@H]43)cnc2n1CC(=O)Nc1ccc(C(F)(F)F)cc1Cl (single isomer, unassigned) [I-231] | < 500 | 5 to 50 |  |
| CCc1c(N2CCN(C(=O)c3c(OC)ncc(C)c3O)C[C@@H]2C)c(=O)c2nc(N3CC[C@@H]4C[C@@H]43)cnc2n1CC(=O)Nc1ccc(C(F)(F)F)cc1Cl (single isomer, unassigned) [I-232] | < 500 | 5 to 50 |  |
| CCc1c(N2CCN(C(=O)c3ncnc(C)c3O)CC2)c(=O)c2nc([C@H]3CC3(F)F)cnc2n1CC(=O)Nc1ccc(C(F)(F)F)cc1Cl (single isomer, unassigned) [I-238] | > 5000 | 5 to 50 |  |
| CCc1c(N2CCN(C(=O)c3c(OC)ncc(C)c3O)[C@@H]3CCC[C@@H]32)c(=O)c2nc(N(C)C)cnc2n1CC(=O)Nc1ccc(C(F)(F)F)cc1Cl (single isomer, unassigned) [I-251, N-(2-chloro-4-(trifluoromethyl)phenyl)-2-(2-(dimethylamino)-6-ethyl-7-(4-(4-hydroxy-2-methoxy-5-methylnicotinoyl)octahydro-1H-cyclopenta[b]pyrazin-1-yl)-8-oxopyrido[2,3-b]pyrazin-5(8H)-yl)acetamide] | < 500 | 5 to 50 |  |
| CCc1c(N2CCN(C(=O)c3c(OC)ncc(C)c3O)[C@H]3CCC[C@H]32)c(=O)c2nc(N(C)C)cnc2n1CC(=O)Nc1ccc(C(F)(F)F)cc1Cl (single isomer, unassigned) [I-252, N-(2-chloro-4-(trifluoromethyl)phenyl)-2-(2-(dimethylamino)-6-ethyl-7-(4-(4-hydroxy-2-methoxy-5-methylnicotinoyl)octahydro-1H-cyclopenta[b]pyrazin-1-yl)-8-oxopyrido[2,3-b]pyrazin-5(8H)-yl)acetamide] | 2000 to 5000 | 100 to 500 |  |
| CCc1c([C@@]23CCN(C(=O)c4ncnc(C)c4O)C[C@@H]2C3)c(=O)c2nc(N(C)C)cnc2n1CC(=O)Nc1ccc(C(F)(F)F)cc1Cl (single isomer, unassigned) [I-276, N-(2-chloro-4-(trifluoromethyl)phenyl)-2-(2-(dimethylamino)-6-ethyl-7-(3-(5-hydroxy-6-methylpyrimidine-4-carbonyl)-3-azabicyclo[4.1.0]heptan-6-yl)-8-oxopyrido[2,3-b]pyrazin-5(8H)-yl)acetamide] | 500 to 2000 | 5 to 50 |  |
| CCc1c([C@]23CCN(C(=O)c4ncnc(C)c4O)C[C@H]2C3)c(=O)c2nc(N(C)C)cnc2n1CC(=O)Nc1ccc(C(F)(F)F)cc1Cl (single isomer, unassigned) [I-277, N-(2-chloro-4-(trifluoromethyl)phenyl)-2-(2-(dimethylamino)-6-ethyl-7-(3-(5-hydroxy-6-methylpyrimidine-4-carbonyl)-3-azabicyclo[4.1.0]heptan-6-yl)-8-oxopyrido[2,3-b]pyrazin-5(8H)-yl)acetamide] | 500 to 2000 | 5 to 50 |  |
| CCc1c(N2CCN(C(=O)c3ncnc(C)c3O)[C@H]3CC(F)(F)C[C@@H]32)c(=O)c2nc(N(C)C)cnc2n1CC(=O)Nc1ccc(C(F)(F)F)cc1Cl (single isomer, unassigned) [I-296, N-(2-chloro-4-(trifluoromethyl)phenyl)-2-(7-(6,6-difluoro-4-(5-hydroxy-6-methylpyrimidine-4-carbonyl)octahydro-1H-cyclopenta[b]pyrazin-1-yl)-2-(dimethylamino)-6-ethyl-8-oxopyrido[2,3-b]pyrazin-5(8H)-yl)acetamide] | 500 to 2000 | 5 to 50 |  |
| CCc1c(N2CCN(C(=O)c3ncnc(C)c3O)[C@@H]3CC(F)(F)C[C@H]32)c(=O)c2nc(N(C)C)cnc2n1CC(=O)Nc1ccc(C(F)(F)F)cc1Cl (single isomer, unassigned) [I-297, N-(2-chloro-4-(trifluoromethyl)phenyl)-2-(7-(6,6-difluoro-4-(5-hydroxy-6-methylpyrimidine-4-carbonyl)octahydro-1H-cyclopenta[b]pyrazin-1-yl)-2-(dimethylamino)-6-ethyl-8-oxopyrido[2,3-b]pyrazin-5(8H)-yl)acetamide] | > 5000 | 100 to 500 |  |
| CCc1c(N2CCN(C(=O)c3ncnc(C)c3O)CC2)c(=O)c2nc(C3CC3(F)F)cnc2n1CC(=O)Nc1ccc(C(F)(F)F)cc1Cl (stereo in doubt) [I-237, N-[2-chloro-4-(trifluoromethyl)phenyl]-2-{2-[(1R)-2,2-difluorocyclopropyl]-6-ethyl-7-[4-(5-hydroxy-6-methylpyrimidine-4-carbonyl)piperazin-1-yl]-8-oxo-5H,8H-pyrido[2,3-b]pyrazin-5-yl}acetamide] | > 5000 | 5 to 50 |  |

More lines, now with the values ahead:

| EC50 ([1]; Homo sapiens, HCT-116, 24 h) [nM] | IC50 [2] [nM] | EC50 [1] [nM] | SMILES |
| --- | --- | --- | --- |
| > 5000 | 5 to 50 |  | CCc1c(N2CCN(C(=O)c3ncnc(C)c3O)[C@H](C)[C@H]2C)c(=O)c2nc(N(C)C)cnc2n1CC(=O)Nc1ccc(C(F)(F)F)cc1Cl (single isomer, unassigned) [I-233, N-(2-chloro-4-(trifluoromethyl)phenyl)-2-(2-(dimethylamino)-6-ethyl-7-(4-(5-hydroxy-6-methylpyrimidine-4-carbonyl)-2,3-dimethylpiperazin-1-yl)-8-oxopyrido[2,3-b]pyrazin-5(8H)-yl)acetamide] |
| 500 to 2000 | 5 to 50 |  | CCc1c(N2CCN(C(=O)c3ncnc(C)c3O)[C@@H](C)[C@@H]2C)c(=O)c2nc(N(C)C)cnc2n1CC(=O)Nc1ccc(C(F)(F)F)cc1Cl (single isomer, unassigned) [I-234, N-(2-chloro-4-(trifluoromethyl)phenyl)-2-(2-(dimethylamino)-6-ethyl-7-(4-(5-hydroxy-6-methylpyrimidine-4-carbonyl)-2,3-dimethylpiperazin-1-yl)-8-oxopyrido[2,3-b]pyrazin-5(8H)-yl)acetamide] |
| > 5000 | 100 to 500 |  | CCc1c(N2C[C@@H]3CC[C@H]2CN3C(=O)c2ncnc(C)c2O)c(=O)c2nc(N(C)C)cnc2n1CC(=O)Nc1ccc(C(F)(F)F)cc1Cl (single isomer, unassigned) [I-247, N-(2-chloro-4-(trifluoromethyl)phenyl)-2-(2-(dimethylamino)-6-ethyl-7-(5-(5-hydroxy-6-methylpyrimidine-4-carbonyl)-2,5-diazabicyclo[2.2.2]octan-2-yl)-8-oxopyrido[2,3-b]pyrazin-5(8H)-yl)acetamide] |
| > 5000 | 100 to 500 |  | CCc1c(N2C[C@H]3C[C@@H]2CN3C(=O)c2ncnc(C)c2O)c(=O)c2nc(N(C)C)cnc2n1CC(=O)Nc1ccc(C(F)(F)F)cc1Cl (single isomer, unassigned) [I-256] |
|  | > 500 | > 5000 | CCc1c(N2C[C@H]3C[C@@H]2CN3C(=O)c2ncnc(C)c2O)c(=O)c2nc(N(C)C)cnc2n1CC(=O)Nc1ccc(C(F)(F)F)cc1Cl (single isomer, unassigned) [I-257] |
|  | 5 to 50 | 2000 to 5000 | CCc1c(N2CCN(C(=O)c3ncnc(C)c3O)C3COCC32)c(=O)c2nc(N(C)C)cnc2n1CC(=O)Nc1ccc(C(F)(F)F)cc1Cl (single isomer, unassigned) [I-278, N-(2-chloro-4-(trifluoromethyl)phenyl)-2-(2-(dimethylamino)-6-ethyl-7-(4-(5-hydroxy-6-methylpyrimidine-4-carbonyl)hexahydrofuro[3,4-b]pyrazin-1(2H)-yl)-8-oxopyrido[2,3-b]pyrazin-5(8H)-yl)acetamide] |
|  | 100 to 500 | > 5000 | CCc1c(N2CCN(C(=O)c3ncnc(C)c3O)C3COCC32)c(=O)c2nc(N(C)C)cnc2n1CC(=O)Nc1ccc(C(F)(F)F)cc1Cl (single isomer, unassigned) [I-279, N-(2-chloro-4-(trifluoromethyl)phenyl)-2-(2-(dimethylamino)-6-ethyl-7-(4-(5-hydroxy-6-methylpyrimidine-4-carbonyl)hexahydrofuro[3,4-b]pyrazin-1(2H)-yl)-8-oxopyrido[2,3-b]pyrazin-5(8H)-yl)acetamide] |
|  | > 500 | > 5000 | CCc1c(N2CCN(C(=O)c3ncnc(C)c3O)C3COCC32)c(=O)c2nc(N(C)C)cnc2n1CC(=O)Nc1ccc(C(F)(F)F)cc1Cl (single isomer, unassigned) [I-294, N-(2-chloro-4-(trifluoromethyl)phenyl)-2-(2-(dimethylamino)-6-ethyl-7-(4-(5-hydroxy-6-methylpyrimidine-4-carbonyl)hexahydrofuro[3,4-b]pyrazin-1(2H)-yl)-8-oxopyrido[2,3-b]pyrazin-5(8H)-yl)acetamide] |
| > 5000 | 50 to 100 |  | CCc1c(N2CCN(C(=O)c3ncnc(C)c3O)[C@@H](COC)C2)c(=O)c2nc(N(C)C)cnc2n1CC(=O)Nc1ccc(C(F)(F)F)cc1Cl (single isomer, unassigned) [I-303, N-(2-chloro-4-(trifluoromethyl)phenyl)-2-(2-(dimethylamino)-6-ethyl-7-(4-(5-hydroxy-6-methylpyrimidine-4-carbonyl)-3-(methoxymethyl)piperazin-1-yl)-8-oxopyrido[2,3-b]pyrazin-5(8H)-yl)acetamide] |

From patent US20250034136A1 (Nimbus Wadjet, Inc., priority 2023, published 2025)
